Positions of bridges follow the written chain, without caps; N, C: chain ends. Non-standard residues stand in square brackets, D forms with d. Residues, ends and D or L forms follow the SMILES beside them. Tic = O=C(O)[C@@H]1Cc2ccccc2CN1; Nle = CCCC[C@H](N)C(=O)O; Orn = NCCC[C@H](N)C(=O)O; Dab = NCC[C@H](N)C(=O)O; Dap = NC[C@H](N)C(=O)O
Assays:
uPAR = molecular target: T1, uPAR (Homo sapiens, UniProt Q03405); assay: Flow cytometry: inhibition of FITC-pro-uPA binding to uPAR on PMA-stimulated U937 cells; conditions: for IC50: FIG. 1a, read-out: IC50 (inhibition of uPA/uPAR interaction) (converted); for affinity/activity for uPAR lower than that of ATF: relative to ATF
T1 construct: human promyeloid cell line U937 as source for cellular native uPAR; endogenous in cells; host or cells: U937 cells stimulated with PMA
T1 sequence (Q03405 23-305): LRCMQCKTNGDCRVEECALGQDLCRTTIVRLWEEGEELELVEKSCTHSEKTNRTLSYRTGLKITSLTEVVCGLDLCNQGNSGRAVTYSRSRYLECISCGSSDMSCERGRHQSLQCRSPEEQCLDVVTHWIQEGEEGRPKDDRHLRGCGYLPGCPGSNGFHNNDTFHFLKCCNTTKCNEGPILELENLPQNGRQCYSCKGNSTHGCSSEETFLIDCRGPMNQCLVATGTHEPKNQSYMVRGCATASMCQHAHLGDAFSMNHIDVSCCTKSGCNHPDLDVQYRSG
Procedure: The capacity of the synthetic peptides for inhibiting uPA/uPAR interaction was determined using the human promyeloid cell line U937 as source for cellular native uPAR by means of flow cytometry on a FACScan flow cytometer (Becton-Dickinson, Heidelberg, Germany) (Chuchulowski et al., Fibrinolysis 6, Suppl. 4 (1992), 95-102; Magdolen et al., (1996), supra). The U937 cells were stimulated with […] phorbol 12-myristate 13-acetate (PMA) for 48 h. After stimulation with PMA, the U937 cells express considerable amounts of cell surface-associated uPAR.
The stimulated cells were treated with 50 m glycine-HCl, 0.1 NaCl, pH 3.6 at room temperature for 1 min, in order to dissociate endogenous receptor-bound uPA. Subsequently, the acidic buffer was neutralized by 0.5 M HEPES, 100 mM NaCl, pH 7.5. The cells were then immediately washed twice with PBS/0.1% bovine serum albumin (BSA) and centrifuged at 300×g at room temperature for 10 min. The cells were resuspended in PBS/0.1% BSA, adjusted to a concentration of 10^6 cells per ml and incubated simultaneously with 1.6 ng of FITC-conjugated pro-uPA and different amounts of the synthetic peptides at room temperature for 45 min. Prior to analysis, propidium iodide, a fluorescent dye binding specifically double-stranded DNA, was added to each sample, in order to determine the viability of the analyzed U937 cells. Damaged, propidium iodide-labeled cells were excluded from the analysis.

plasmin = assay: Sensitivity to the tissue protease plasmin (HPLC); format: in vitro ADME; conditions: 0.05 U plasmin, 37° C., 30 min, pH 7.5
Procedure: The sensitivity of peptides against the attack of various proteases of the digestive tract was determined in vitro using purified enzymes under suitable buffer conditions. In general, 10 μg of peptide were incubated in a 100 μl volume with 2 μg of protease at 37° C. for 30 min under the buffer conditions for the activity controls as stated by the manufacturer. After incubation and dilution with 300 μl of H2O, the mixtures were analyzed directly, without prepurification via a precolumn, by HPLC using a 20-60% gradient of H2O, 0.1% trifluoroacetic acid and acetonitrile, 0.1% trifluoroacetic acid.
Pepsin (Sigma, Deisenhofen, Germany) was incubated with peptides in 52 mM HCl. Incubations with trypsin (Sigma) were carried out in 63 mM sodium phosphate pH 7.6. Chymotrypsins α, β, γ,δ (ICN) were incubated in 50 mM CaCl2 and 40 mM Tris/HCl pH 7.8. This was followed by incubating with bacteriae proteinase K in unbuffered water. The positive control used was the *peptide cyclo[19,31]-uPA16-32 which corresponds to the original sequence of the uPA omega loop except for the cysteine bridge. The peptide sensitivity against the tissue protease plasmin (Sigma) was assayed in mixtures with 10 or 5 μg of peptides and 0.05 U of plasmin in 100 μl of 200 mM sodium phosphate pH 7.5 at 37° C. and a 30 min incubation period.
FIG. 5 depicts HPLC profiles of peptide variants prior to (top profiles) and after (bottom profiles) incubation with plasmin. Part (A) of the figure depicts the unaltered lead structure cyclo[21,29][D-Cys^21Cys^29]-uPA21-30 with lysine at position 23, (B) the ornithine-substituted variant cyclo[21,29][D-Cys^21Orn^23Cys^29]-uPA21-30, (C) the diaminobutyric acid-substituted variant cyclo[21,29][D-Cys^21Dab^23Cys^29]-uPA21-30, (D) the diaminopropionic acid-substituted variant cyclo[21,29][D-Cys^21Dap^23Cys^29]-uPA21-30, (E) the norleucine-substituted variant cyclo[21,29][D-Cys^21Nle^23Cys^29]-uPA21-30 and (F) the arginine-substituted variant cyclo[21,29][D-Cys^21Arg^23Cys^29]-uPA21-30. The protease plasmin appears in the bottom profiles in each case at approx. 17.5 min.

[1] = Peptide stability in human serum (HPLC); format: in vitro ADME; conditions: 37° C., 20.5 h
Procedure: (§1) The stability of uPA-derived peptides in human serum or complete blood was assayed in vitro.
Human sera were prepared by allowing venous blood to coagulate without anti-coagulant in polypropylene tubes at 37° C. for 45 min. The clots adhering to the vessel wall were removed using a plastic stick and removed by centrifugation at 1200×g at room temperature for 12 min. The serum in the supernatant was removed and either used freshly for stability studies or frozen in aliquots at −20° C. for further use.
(§2) For stability studies in human complete blood, coagulation of venous blood was inhibited by heparin sodium (1 000 IU per 10 ml of complete blood), and the blood was used freshly. The peptides to be tested were added to the body fluids in the form of peptide-mixture stock solutions (≧1 μg per peptide in H2O) at a concentration of 5 μg/100 μl of serum or 200 μl of complete blood (per peptide) and incubated at 37° C. for various times. Prior to HPLC analysis, complete blood incubations were centrifuged at 16 000×g at room temperature for 5 min and the plasma in the supernatant was removed.
Sera and plasmas were prepurified via HLB precolumns (Waters GmbH, Oasis HLB extraction cartridge 1 cm^3/30 mg) prior to HPLC analysis. For this purpose, 100 μl of liquid were diluted with PBS to 1 ml and applied to said HLB precolumns equilibrated with 1 ml of 100% methanol and 1 ml of H2O. The columns were washed with 1ml of 5% methanol in H2O and eluted with 1 ml of 100% methanol. The first 200 μl (4 drops) of the eluate were discarded as void volume. The next 500 μl of eluate were diluted with 500 μl of PBS and analyzed by HPLC. […]
The stability of the peptides inhuman serum (FIG. 4a) was studied by adding a mixture of in each case 12.5 μg of the peptides to about 250 μl of serum. 100 μl thereof were diluted with PBS to 1 ml, prepurified on an HLB precolumn and analyzed immediately by HPLC (middle profile). A further 100 μl were analyzed after 20.5 h of incubation at 37° C. […] As a control, in each case 5 μg of the peptides were admixed with 1 ml of PBS and analyzed (top profile). […]

[2] = Peptide stability in heparinized human complete blood (HPLC); format: in vitro ADME; conditions: for stability in heparinized human blood: 37° C., 20.5 h, HPLC of plasma; for distribution between plasma and blood cells: heparinized human blood, peak integrals versus PBS control
Procedure: as §1, §2
Sera and plasmas were prepurified via HLB precolumns (Waters GmbH, Oasis HLB extraction cartridge 1 cm^3/30 mg) prior to HPLC analysis. For this purpose, 100 μl of liquid were diluted with PBS to 1 ml and applied to said HLB precolumns equilibrated with 1 ml of 100% methanol and 1 ml of H2O. The columns were washed with 1ml of 5% methanol in H2O and eluted with 1 ml of 100% methanol. The first 200 μl (4 drops) of the eluate were discarded as void volume. The next 500 μl of eluate were diluted with 500 μl of PBS and analyzed by HPLC. The remaining 300 μl of the eluate were discarded. HPLC analysis was carried out using a YMC-5 C18 analytical column and a 20-60% gradient of H2O, 0.1% trifluoroacetic acid and acetonitrile, 0.1% trifluoroacetic acid over 30 min and detecting the analytes at 220 nm.
The stability in heparinized human blood (FIG. 4b) was studied by adding 750 μl of freshly prepared heparinized human blood to 37.5 μg of the peptides. Immediately thereafter, 375 μl were removed by centrifugation. 100 μl of the plasma supernatant were analyzed (middle profile). The remaining 375 μl were incubated with gentle agitation at 37° C. for 20.5 h and then analyzed (bottom profile). As a control, 5 μg of the peptides had already been admixed with 1 ml of PBS and analyzed (top profile).

Compound | stability against plasmin (plasmin) | stability in human serum [1] | stability in heparinized human blood [2] | other results
CC[C@H](C)[C@@H]1NC(=O)[C@H](CC(N)=O)NC(=O)[C@H](CO)NC(=O)[C@H](Cc2ccccc2)NC(=O)[C@H](Cc2ccc(O)cc2)NC(=O)[C@H](CCCCN)NC(=O)[C@H](CC(N)=O)NC(=O)[C@@H](N)CSSC[C@@H](C(=O)N[C@@H](Cc2c[nH]c3ccccc23)C(=O)O)NC1=O [cyclo[21,29][Cys^21,29]-uPA21-30, reference compound] (H-CNKYFSNICW-OH; disulfide 1-9; N-terminus and C-terminus assumed) | – | – | – | IC50 (uPAR): 2.26 µM; affinity/activity for uPAR lower than that of ATF (uPAR): hundred-fold lower
CC[C@H](C)[C@@H]1NC(=O)[C@H](CC(N)=O)NC(=O)[C@H](CO)NC(=O)[C@H](Cc2ccccc2)NC(=O)[C@H](Cc2ccc(O)cc2)NC(=O)[C@H](CCCCN)NC(=O)[C@H](CC(N)=O)NC(=O)[C@H](N)CSSC[C@@H](C(=O)N[C@@H](Cc2c[nH]c3ccccc23)C(=O)O)NC1=O [cyclo[21,29][D-Cys^21,Cys^29]uPA21-30] (H-[dC]NKYFSNICW-OH; disulfide 1-9; N-terminus and C-terminus assumed) | a new unknown peak appeared | unaltered | stable | distribution between plasma and blood cells [2]: distributed mainly in the plasma; IC50 (uPAR): 0.078 µM; affinity/activity for uPAR lower than that of ATF (uPAR): 4
CC[C@H](C)[C@@H]1NC(=O)[C@H](CC(N)=O)NC(=O)[C@H](CO)NC(=O)[C@H](Cc2ccccc2)NC(=O)[C@H](Cc2ccc(O)cc2)NC(=O)[C@H](CCN)NC(=O)[C@H](CC(N)=O)NC(=O)[C@H](N)CSSC[C@@H](C(=O)N[C@@H](Cc2c[nH]c3ccccc23)C(=O)O)NC1=O [cyclo[21,29][D-Cys^21Dab^23Cys^29]-uPA21-30] (H-[dC]N[Dab]YFSNICW-OH; disulfide 1-9; N-terminus assumed) | stable against plasmin | – | – | –
CC[C@H](C)[C@@H]1NC(=O)[C@H](CC(N)=O)NC(=O)[C@H](CO)NC(=O)[C@H](Cc2ccccc2)NC(=O)[C@H](Cc2ccc(O)cc2)NC(=O)[C@H](CN)NC(=O)[C@H](CC(N)=O)NC(=O)[C@H](N)CSSC[C@@H](C(=O)N[C@@H](Cc2c[nH]c3ccccc23)C(=O)O)NC1=O [cyclo[21,29][D-Cys^21Dap^23Cys^29]-uPA21-30] (H-[dC]N[Dap]YFSNICW-OH; disulfide 1-9; N-terminus assumed) | two small unidentified peaks appeared | – | – | –
CC[C@H](C)[C@@H]1NC(=O)[C@H](CC(N)=O)NC(=O)[C@H](CO)NC(=O)[C@@H]2Cc3ccccc3CN2C(=O)[C@H](Cc2ccc(O)cc2)NC(=O)[C@H](CCCCN)NC(=O)[C@H](CC(N)=O)NC(=O)[C@H](N)CSSC[C@@H](C(=O)N[C@@H](Cc2c[nH]c3ccccc23)C(=O)O)NC1=O [cyclo[21,29][D-Cys^21,Tic^25,Cys^29]-uPA21-30] (H-[dC]NKY[Tic]SNICW-OH; disulfide 1-9; N-terminus assumed) | – | unaltered | stable | distribution between plasma and blood cells [2]: distributed mainly in the plasma
CC[C@H](C)[C@@H]1NC(=O)[C@H](CC(N)=O)NC(=O)[C@H](CO)NC(=O)[C@H](Cc2ccccc2)NC(=O)[C@H](Cc2ccc(O)cc2)NC(=O)[C@H](CCCNC(=N)N)NC(=O)[C@H](CC(N)=O)NC(=O)[C@H](N)CSSC[C@@H](C(=O)N[C@@H](Cc2c[nH]c3ccccc23)C(=O)O)NC1=O [cyclo[21,29][D-Cys^21Arg^23Cys^29]-uPA21-30] (H-[dC]NRYFSNICW-OH; disulfide 1-9; N-terminus assumed) | plasmin-sensitive | – | – | –
CC[C@H](C)[C@@H]1NC(=O)[C@H](CC(N)=O)NC(=O)[C@H](CO)NC(=O)[C@H](Cc2ccccc2)NC(=O)[C@H](Cc2ccc(O)cc2)NC(=O)[C@H](CCCN)NC(=O)[C@H](CC(N)=O)NC(=O)[C@H](N)CSSC[C@@H](C(=O)N[C@@H](Cc2c[nH]c3ccccc23)C(=O)O)NC1=O [cyclo[21,29][D-Cys^21Orn^23Cys^29]-uPA21-30] (H-[dC]N[Orn]YFSNICW-OH; disulfide 1-9; N-terminus assumed) | stable against plasmin | – | – | –
cyclo[19,31]-uPA16-32 [reference compound] | – | could no longer be detected | instability | part of the amount of peptide added degraded ([2]; complete blood, 10-15 min between addition and prepurification): > 80%
CCCC[C@@H]1NC(=O)[C@H](CC(N)=O)NC(=O)[C@H](N)CSSC[C@@H](C(=O)N[C@@H](Cc2c[nH]c3ccccc23)C(=O)O)NC(=O)[C@H]([C@@H](C)CC)NC(=O)[C@H](CC(N)=O)NC(=O)[C@H](CO)NC(=O)[C@H](Cc2ccccc2)NC(=O)[C@H](Cc2ccc(O)cc2)NC1=O [cyclo[21,29][D-Cys^21Nle^23Cys^29]-uPA21-30] (H-[dC]N[Nle]YFSNICW-OH; disulfide 1-9; N-terminus assumed) | stable against plasmin | – | – | –

— patent US7314863B2, “Cyclic peptidomimetic urokinase receptor antagonists” (Wilex AG, priority 1999, dated 2008)
